Source: patent publication US12581252B2, “Substituted pyrrolo[3,4-b]pyridines as PI3K-α inhibitors” (Relay Therapeutics, Inc., priority 2020, dated 2026)

Target: H1047R PIK3CA enzyme (Homo sapiens, UniProt P42336, H1047R)
Experiment: ADP-Glo Biochemical PIK3CA Kinase Assay

Sequence of H1047R PIK3CA enzyme (P42336 whole entry H1047R): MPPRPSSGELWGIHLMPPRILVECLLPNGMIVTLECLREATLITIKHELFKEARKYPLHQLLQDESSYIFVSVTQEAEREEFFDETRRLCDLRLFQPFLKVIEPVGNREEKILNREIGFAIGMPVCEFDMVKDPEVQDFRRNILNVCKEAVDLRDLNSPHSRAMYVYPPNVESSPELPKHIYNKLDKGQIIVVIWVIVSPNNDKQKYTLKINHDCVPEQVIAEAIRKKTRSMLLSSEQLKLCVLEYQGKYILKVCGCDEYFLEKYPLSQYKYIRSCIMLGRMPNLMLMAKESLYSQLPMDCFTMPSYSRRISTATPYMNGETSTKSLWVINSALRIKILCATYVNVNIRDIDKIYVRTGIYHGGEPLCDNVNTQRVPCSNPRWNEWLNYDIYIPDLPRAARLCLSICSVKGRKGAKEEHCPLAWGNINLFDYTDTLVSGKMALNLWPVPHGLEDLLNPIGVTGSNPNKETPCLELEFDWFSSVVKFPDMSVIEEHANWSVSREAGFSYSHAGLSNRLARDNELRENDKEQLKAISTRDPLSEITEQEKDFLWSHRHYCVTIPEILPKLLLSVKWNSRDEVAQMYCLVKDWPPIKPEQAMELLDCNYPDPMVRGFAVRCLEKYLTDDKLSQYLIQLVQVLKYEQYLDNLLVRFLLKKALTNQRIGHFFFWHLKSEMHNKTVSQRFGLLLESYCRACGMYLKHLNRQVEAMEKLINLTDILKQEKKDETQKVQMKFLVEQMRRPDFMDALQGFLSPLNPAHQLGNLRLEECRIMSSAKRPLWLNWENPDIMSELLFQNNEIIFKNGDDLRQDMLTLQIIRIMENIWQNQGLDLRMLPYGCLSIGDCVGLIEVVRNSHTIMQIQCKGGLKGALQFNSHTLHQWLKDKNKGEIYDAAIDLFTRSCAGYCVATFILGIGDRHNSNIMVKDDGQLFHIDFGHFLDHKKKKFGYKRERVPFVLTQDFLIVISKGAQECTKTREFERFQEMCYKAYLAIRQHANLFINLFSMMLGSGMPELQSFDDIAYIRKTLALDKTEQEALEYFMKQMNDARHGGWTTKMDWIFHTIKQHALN
Sequence of H1047R PIK3CA enzyme (P27986 whole entry partner): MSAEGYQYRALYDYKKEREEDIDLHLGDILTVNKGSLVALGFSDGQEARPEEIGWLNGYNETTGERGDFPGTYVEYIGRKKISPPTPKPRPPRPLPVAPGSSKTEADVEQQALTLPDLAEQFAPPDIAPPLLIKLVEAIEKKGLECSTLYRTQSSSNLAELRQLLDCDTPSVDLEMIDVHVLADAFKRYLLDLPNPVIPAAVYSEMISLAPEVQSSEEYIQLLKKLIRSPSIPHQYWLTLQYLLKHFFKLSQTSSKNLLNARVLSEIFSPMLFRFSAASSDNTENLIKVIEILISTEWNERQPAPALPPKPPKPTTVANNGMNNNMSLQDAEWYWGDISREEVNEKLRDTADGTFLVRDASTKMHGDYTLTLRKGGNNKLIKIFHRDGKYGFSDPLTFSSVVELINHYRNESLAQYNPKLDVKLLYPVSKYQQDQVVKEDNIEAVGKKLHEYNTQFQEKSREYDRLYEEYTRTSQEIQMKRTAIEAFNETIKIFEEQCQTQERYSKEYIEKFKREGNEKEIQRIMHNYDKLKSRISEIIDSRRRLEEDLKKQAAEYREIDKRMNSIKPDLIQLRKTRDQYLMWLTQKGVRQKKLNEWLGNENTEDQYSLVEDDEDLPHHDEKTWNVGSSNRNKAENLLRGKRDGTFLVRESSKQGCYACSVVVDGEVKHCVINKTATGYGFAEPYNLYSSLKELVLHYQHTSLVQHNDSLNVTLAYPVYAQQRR

SMILES | IC50 [µM]
O=C(Nc1cccc2c1[C@H](C1CCC(F)(F)CC1)NC2=O)c1cc(F)cc(C(F)(F)F)c1 (racemic) [Compound I-1836] | 10 to 100
Cc1ccccc1C1NC(=O)c2cccc(NC(=O)c3nc(C)c4c(F)cc(F)cn34)c21 (stereo not drawn) [Compound I-342] | 10 to 100
O=C1NC(c2cc(F)ccc2Cl)c2c(NC(=O)C34CC5CC(CC(C5)O3)C4)cccc21 (stereo not drawn) [Compound I-2303] | 10 to 100
N#CCc1cc(NC(=O)N2C[C@@](O)(C(F)F)c3cc(F)ccc32)c2c(c1)C(=O)N[C@@H]2c1cc(F)ccc1Cl (single isomer, unassigned) [Compound I-2600] | 0.5 to 1
O=C1N[C@H](c2cc(F)ccc2Cl)c2c(NC(=O)N3C[C@@](O)(CO)c4ccccc43)cccc21 [Compound I-2167] | 10 to 100
CN1CCC(C2NC(=O)c3cccc(NC(=O)c4cc(F)cc(C(F)(F)F)c4)c32)CC1 (stereo not drawn) [Compound I-1815] | 10 to 100
O=C1NC(c2cc(F)ccc2Cl)c2c(NC(=O)N3CCc4cc(F)ccc43)cc(Br)cc21 (stereo not drawn) [Compound I-1270] | ≤ 0.1
O=C(Nc1ccccc1)Nc1cc(Br)cc2c1[C@@H](c1cc(F)ccc1Cl)NC2=O (stereo in doubt) [Compound I-1946] | 1 to 10
CC(C)CC1NC(=O)c2cccc(NC(=O)c3cc(F)cc(C(F)(F)F)c3)c21 (stereo not drawn) [Compound I-442] | 1 to 10
O=C1N[C@H](c2cc(F)ccc2Cl)c2c(NC(=O)[C@H]3CCC[C@H](OC(F)(F)F)C3)cccc21 (single isomer, unassigned) [Compound I-2211] | 10 to 100
N#CC1(COc2cc(NC(=O)N3C[C@@H](O)c4cc(F)ccc43)c3c(c2)C(=O)N[C@H]3c2cc(F)ccc2Cl)CC1 (single isomer, unassigned) [Compound I-2551] | 1 to 10
COc1cc2c(cn1)N(C(=O)Nc1ccnc3c1C(c1ccccc1C)NC3=O)CC2 (stereo not drawn) [Compound I-324] | 10 to 100
CC1(Cc2cc(NC(=O)N3C[C@@](O)(C(F)(F)F)c4cc(F)ccc43)c3c(c2)C(=O)N[C@H]3c2cc(F)ccc2Cl)COC1 (single isomer, unassigned) [Compound I-2660] | 10 to 100
O=C1N[C@H](c2cc(F)ccc2Cl)c2c(NC(=O)N3C[C@H](O)c4cc(F)ccc43)cc(Cl)cc21 (single isomer, unassigned) [Compound I-2399] | 1 to 10
CC12CC3CC(C)(C1)CC(C(=O)Nc1cccc4c1C(c1cc(F)ccc1Cl)NC4=O)(C3)C2 (stereo not drawn) [Compound I-1074] | 0.1 to 0.5
O=C1NC(c2cc(F)ccc2Cl)c2c(NC(=O)N3CC(=O)N4CCCC4C3)cc(Br)cc21 (stereo not drawn) [Compound I-766] | 10 to 100
N#CCc1cc(NC(=O)N2C[C@@](O)(C(F)F)c3cc(F)ccc32)c2c(c1)C(=O)N[C@H]2c1cc(F)ccc1Cl (single isomer, unassigned) [Compound I-2599] | 0.1 to 0.5
C[C@H](O)c1cc(-c2ccc3ncnn3c2)cc2c1[C@H](c1cc(F)ccc1Cl)NC2=O (single isomer, unassigned) [Compound I-2229] | 10 to 100
C[C@H](CCC(F)(F)F)C(=O)Nc1cccc2c1[C@H](c1cc(F)ccc1Cl)NC2=O [Compound I-2139] | 10 to 100
Cc1ccccc1C1NC(=O)c2cccc(NC(=O)c3cc(C(F)(F)F)ccc3F)c21 (stereo not drawn) [Compound I-369] | 1 to 10

SMILES | IC50 [µM]
O=C1N[C@@H](c2cc(F)ccc2Cl)c2c(NC(=O)N3C[C@](O)(C(F)(F)F)c4cc(F)ccc43)ccnc21 (single isomer, unassigned) [Compound I-2701] | 1 to 10
O=C1NC(c2cc(F)ccc2Cl)c2c1cc(-c1ccc3ncnn3c1)cc2N1CCn2cnnc2C1 (stereo not drawn) [Compound I-2019] | 10 to 100
O=C1NC(c2cc(F)ccc2Cl)c2c(NC(=O)N3CCCOCC3)cc(Br)cc21 (stereo not drawn) [Compound I-574] | 10 to 100
Cc1ccccc1C1NC(=O)c2c(C#N)ccc(NC(=O)c3cc(F)cc(C(F)(F)F)c3)c21 (stereo not drawn) [Compound I-313] | 0.1 to 0.5
O=C(Nc1cccc2c1C(c1nc(C(F)(F)F)cs1)NC2=O)c1cc(F)cc(C(F)(F)F)c1 (stereo not drawn) [Compound I-2330] | 10 to 100
O=C1N[C@@H](c2cc(F)ccc2Cl)c2c(NC(=O)[C@H]3CC[C@@H](O)C3)cc(Br)cc21 (single isomer, unassigned) [Compound I-2102] | 10 to 100
O=C1N[C@@H](c2cc(F)ccc2Cl)c2c(NC(=O)[C@H]3CC[C@@H](C(F)(F)F)C3)cccc21 [Compound I-2085] | 1 to 10
N#CC1(COc2cc(NC(=O)N3C[C@H](O)c4cc(F)ccc43)c3c(c2)C(=O)N[C@H]3c2cc(F)ccc2Cl)CC1 (single isomer, unassigned) [Compound I-2553] | 0.1 to 0.5
O=C(Nc1cccc2c1[C@@H](C[C@@H]1CCCCN1)NC2=O)c1cc(F)cc(C(F)(F)F)c1 (single isomer, unassigned) [Compound I-2281] | 10 to 100
O=C(Nc1ccccc1Cl)Nc1ccnc2c1C(c1ccccc1Cl)NC2=O (stereo not drawn) [Compound I-296] | 1 to 10
O=C1NC(c2cc(F)ccc2Cl)c2c1cccc2-n1ccc2ccccc2c1=O (stereo not drawn) [Compound I-1590] | 10 to 100
O=C1N[C@H](c2cc(F)ccc2Cl)c2c(NC(=O)[C@H]3CCCNC3)cc(-c3ccc4ncnn4c3)cc21 (racemic) [Compound I-1848] | 10 to 100
O=C1N[C@H](c2cccc(F)c2F)c2c(NC(=O)c3csc4ccccc34)ccnc21 [Compound I-23] | 1 to 10
O=C1N[C@@H](c2cc(F)ccc2Cl)c2c(N[C@H]3COCc4ccccc43)cc(Br)cc21 (racemic) [Compound I-1893] | 10 to 100
Nc1nc2cc(-c3cc(NC(=O)c4cc(F)cc(C(F)(F)F)c4)c4c(c3)C(=O)N[C@H]4c3cc(F)ccc3Cl)ccn2n1 [Compound I-1447] | ≤ 0.1
O=C1N[C@@H](c2cc(F)ccc2Cl)c2c(N[C@H]3CCOc4ccccc43)cc(-c3cnn(C(F)F)c3)nc21 [Compound I-2082] | 10 to 100
Cc1ccccc1[C@@H]1NC(=O)c2nccc(NC(=O)N3C[C@H](C)c4ccccc43)c21 (single isomer, unassigned) [Compound I-302] | 0.5 to 1
O=C1NC(c2cc(F)ccc2Cl)c2c(NC(=O)C3(c4ccccc4)CCCC3)cc(Br)cc21 (stereo not drawn) [Compound I-604] | 1 to 10
CC(C)[C@]1(O)CN(C(=O)Nc2cccc3c2[C@H](c2cc(F)ccc2Cl)NC3=O)c2ccc(F)cc21 (single isomer, unassigned) [Compound I-2453] | 1 to 10
O=C1NC(c2cc(F)ccc2Cl)c2c(NC(=O)N3CC4CC4(F)C3)cc(Br)cc21 (stereo not drawn) [Compound I-1954] | 10 to 100

Results, then the compound that gave them:

IC50 [µM] | SMILES
10 to 100 | O=C1NC(c2cc(F)ccc2Cl)c2c(C#Cc3cc(F)cc(C(F)(F)F)c3)cccc21 (stereo not drawn) [Compound I-2187]
≤ 0.1 | Cn1cc(C#Cc2cc(NC(=O)c3cc(F)cc(C(F)(F)F)c3)c3c(c2)C(=O)NC3c2cc(F)ccc2Cl)cn1 (stereo not drawn) [Compound I-1155]
0.1 to 0.5 | CC(=O)NCCOc1cc(NC(=O)c2cc(F)cc(C(F)(F)F)c2)c2c(c1)C(=O)NC2c1cc(F)ccc1Cl (racemic) [Compound I-1322]
≤ 0.1 | CS(=O)(=O)N1CC(Oc2cc(NC(=O)c3cc(F)cc(C(F)(F)F)c3)c3c(c2)C(=O)NC3c2cc(F)ccc2Cl)C1 (stereo not drawn) [Compound I-1346]
1 to 10 | O=C(Nc1cc(Br)cc2c1C(c1cc(F)ccc1Cl)NC2=O)c1cc(C(F)(F)F)cc(F)c1F (stereo not drawn) [Compound I-908]
≤ 0.1 | Cn1nccc1C(F)c1cc(NC(=O)c2cc(F)cc(C(F)(F)F)c2)c2c(c1)C(=O)NC2c1cc(F)ccc1Cl (mixture of isomers) [Compound I-1379]
≤ 0.1 | O=C(Nc1cc(-c2cnn(-c3cnccn3)c2)cc2c1C(c1cc(F)ccc1Cl)NC2=O)c1cc(F)cc(C(F)(F)F)c1 (stereo not drawn) [Compound I-1608]
≤ 0.1 | O=C(Nc1cc(-c2cnc3ncc(Cl)n3c2)cc2c1C(c1cc(F)ccc1Cl)NC2=O)c1cc(F)cc(C(F)(F)F)c1 (stereo not drawn) [Compound I-1934]
≤ 0.1 | O=C(Nc1cc(Nc2ccno2)cc2c1C(c1cc(F)ccc1Cl)NC2=O)c1cc(F)cc(C(F)(F)F)c1 (stereo not drawn) [Compound I-1115]
≤ 0.1 | C[S@@](=O)(Cc1cc(NC(=O)c2cc(F)cc(C(F)(F)F)c2)c2c(c1)C(=O)N[C@H]2c1cc(F)ccc1Cl)=NC#N (single isomer, unassigned) [Compound I-1565]
10 to 100 | Cn1cc(-c2cc(NC(=O)c3cc(F)cc(C(F)(F)F)c3)c3c(c2)C(=O)N[C@@H]3c2cc(F)ccc2Cl)c(C#N)n1 [Compound I-1737]
10 to 100 | O=C(Nc1cc(-c2ccc3ncnn3c2)cc2c1C(c1cc(F)ccc1Cl)NC2=O)C(=NO)c1ccccc1 (stereo not drawn) [Compound I-1760]
≤ 0.1 | CC(C)(O)c1cc(NC(=O)c2cc(F)cc(C(F)(F)F)c2)c2c(c1)C(=O)NC2c1cc(F)ccc1C(F)F (stereo not drawn) [Compound I-239]
0.1 to 0.5 | CC(=O)NCc1cc(NC(=O)c2cc(F)cc(C(F)(F)F)c2)c2c(c1)C(=O)NC2c1cc(F)ccc1Cl (stereo not drawn) [Compound I-207]
1 to 10 | CN1C(=O)NC(c2cc(F)ccc2Cl)c2c(NC(=O)c3cc(F)cc(C(F)(F)F)c3)cccc21 (stereo not drawn) [Compound I-1951]
≤ 0.1 | CC1(Nc2cc(NC(=O)c3cc(F)cc(C(F)(F)F)c3)c3c(c2)C(=O)N[C@H]3c2cc(F)ccc2Cl)COC1 [Compound I-813]
≤ 0.1 | CC(=O)Nc1cc(NC(=O)c2cc(F)cc(C(F)(F)F)c2)c2c(c1)C(=O)NC2c1cc(F)ccc1Cl (stereo not drawn) [Compound I-423]
≤ 0.1 | CC(=O)Nc1cc(NC(=O)c2cc(F)cc(C(F)(F)F)c2)c2c(c1)C(=O)N[C@H]2c1cc(F)ccc1Cl [Compound I-461]
≤ 0.1 | Cc1ncc(-c2cc(NC(=O)c3cc(F)cc(Cl)c3)c3c(c2)C(=O)NC3c2cc(F)ccc2Cl)cn1 (stereo not drawn) [Compound I-849]
0.1 to 0.5 | O=C(Nc1cc(C(O)COCCO)cc2c1C(c1cc(F)ccc1Cl)NC2=O)c1cc(F)cc(C(F)(F)F)c1 (stereo not drawn) [Compound I-1134]
≤ 0.1 | O=C(Nc1cc(-c2ccc3ccnn3c2)cc2c1C(c1cc(F)ccc1Cl)NC2=O)c1cc(F)cc(C(F)(F)F)c1 (stereo not drawn) [Compound I-1499]
0.5 to 1 | COc1ccc(C(=O)Nc2cc(Br)cc3c2C(c2cc(F)ccc2Cl)NC3=O)cc1C(F)(F)F (stereo not drawn) [Compound I-877]
0.1 to 0.5 | O=C(Nc1cc(Br)cc2c1C(c1cc(F)ccc1Cl)NC2=O)c1ccc(Cl)c(C(F)(F)F)c1 (stereo not drawn) [Compound I-952]
